ChEMBL document CHEMBL1121455, “N-(alpha-Hydroxyalkanoyl) derivatives of Leu-Val-Phe-OCH3 as inhibitors of renin” (J Med Chem, 1980)
pKi: −log10 of the molar value. Residues, ends and D or L forms follow the SMILES beside them.

molecular target: T1, Renin (Homo sapiens, UniProt P00797); test: Inhibition of human amniotic renin was tested and determined by Dixon plots
T1 sequence (P00797 whole entry): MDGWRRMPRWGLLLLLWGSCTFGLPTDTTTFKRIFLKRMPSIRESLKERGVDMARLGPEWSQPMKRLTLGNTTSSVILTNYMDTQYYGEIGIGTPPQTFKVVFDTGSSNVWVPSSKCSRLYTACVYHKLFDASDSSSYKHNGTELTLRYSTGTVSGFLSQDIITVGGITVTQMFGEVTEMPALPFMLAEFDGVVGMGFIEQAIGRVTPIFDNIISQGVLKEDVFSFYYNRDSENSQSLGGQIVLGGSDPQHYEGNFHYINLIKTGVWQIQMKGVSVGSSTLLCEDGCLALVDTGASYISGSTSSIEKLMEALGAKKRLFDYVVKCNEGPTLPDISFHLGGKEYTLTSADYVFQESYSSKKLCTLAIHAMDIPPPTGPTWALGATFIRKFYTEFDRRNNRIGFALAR

pKi	SMILES
3.64	COC(=O)[C@H](Cc1ccccc1)NC(=O)[C@@H](NC(=O)[C@H](CC(C)C)NC(=O)[C@@H](O)CC(C)C)C(C)C
3.28	COC(=O)[C@H](Cc1ccccc1)NC(=O)[C@@H](NC(=O)[C@H](CC(C)C)NC(=O)[C@@H](O)c1ccccc1)C(C)C
2.94	COC(=O)[C@H](Cc1ccccc1)NC(=O)[C@@H](NC(=O)[C@H](CC(C)C)NC(=O)[C@@H](N)CC(C)C)C(C)C (HELM PEPTIDE1{L.L.V.F.[CO[*:1]]}$$$$V2.0)
3.01	COC(=O)[C@H](Cc1ccccc1)NC(=O)[C@@H](NC(=O)[C@H](CC(C)C)NC(=O)[C@H](O)c1ccccc1)C(C)C
3.22	COC(=O)[C@H](Cc1ccccc1)NC(=O)[C@@H](NC(=O)[C@H](CC(C)C)NC(=O)[C@H](O)CC(C)C)C(C)C
2.75	COC(=O)[C@H](Cc1ccccc1)NC(=O)[C@@H](NC(=O)[C@H](CC(C)C)NC(=O)[C@H](O)C(C)C)C(C)C
3.52	COC(=O)[C@H](Cc1ccccc1)NC(=O)[C@@H](NC(=O)[C@H](CC(C)C)NC(=O)[C@@H](O)C(C)C)C(C)C
3.17	COC(=O)[C@H](Cc1ccccc1)NC(=O)[C@@H](NC(=O)[C@H](CC(C)C)NC(=O)[C@@H](O)Cc1ccccc1)C(C)C (HELM PEPTIDE1{[O=C([C@@H](O)Cc1ccccc1)[*:2]].L.V.F.[CO[*:1]]}$$$$V2.0)
